Measurements taken from PubChem BioAssay AID1259407 (Chemical Carcinogenesis Research Information System (CCRIS), 2018).
The source made the active and inactive calls. No rule for the calls is given here.

Test system: CCRIS mutagenicity, Ames/micronucleus/aberration tests
Assay: CCRIS mutagenicity studies

For `Nc1cc2c3ccccc3ccc2c2ccccc12`, the mutagenic call (Test System: AMES SALMONELLA TYPHIMURIUM, Strain/Indicator: TA98 (1,8-DNP6), Metabolic Activation: RAT LIVER, CYTOSOL, AROCLOR 1254, Method: STANDARD PLATE) was “inactive; negative”, the mutagenic call (Test System: AMES SALMONELLA TYPHIMURIUM, Strain/Indicator: TA98 (1,8-DNP6), Metabolic Activation: RAT LIVER, MICROSOMES, AROCLOR 1254, Method: STANDARD PLATE) was “active; positive” and the mutagenic call (Test System: AMES SALMONELLA TYPHIMURIUM, Strain/Indicator: TA98, Metabolic Activation: FERRET, LIVER, CYTOSOL, Method: STANDARD PLATE) was “inactive; negative”. The mutagenic call (Test System: AMES SALMONELLA TYPHIMURIUM, Strain/Indicator: TA98, Metabolic Activation: FERRET, LIVER, MICROSOMES, Method: STANDARD PLATE) was “inactive; negative”, the mutagenic call (Test System: AMES SALMONELLA TYPHIMURIUM, Strain/Indicator: TA98, Metabolic Activation: HAMSTER, LIVER, CYTOSOL, Method: STANDARD PLATE) was “inactive; negative” and the mutagenic call (Test System: AMES SALMONELLA TYPHIMURIUM, Strain/Indicator: TA98, Metabolic Activation: HAMSTER, LIVER, MICROSOMES, Method: STANDARD PLATE) was “active; positive”. The mutagenic call (Test System: AMES SALMONELLA TYPHIMURIUM, Strain/Indicator: TA98, Metabolic Activation: HUMAN, LIVER, CYTOSOL, Method: STANDARD PLATE) was “active; positive”, the mutagenic call (Test System: AMES SALMONELLA TYPHIMURIUM, Strain/Indicator: TA98, Metabolic Activation: NONE, Method: PREINCUBATION) was “active; positive” and the mutagenic call (Test System: AMES SALMONELLA TYPHIMURIUM, Strain/Indicator: TA98, Metabolic Activation: PIG, LIVER, CYTOSOL, Method: STANDARD PLATE) was “active; positive”. For the same molecule, the mutagenic call (Test System: AMES SALMONELLA TYPHIMURIUM, Strain/Indicator: TA98, Metabolic Activation: PIG, LIVER, MICROSOMES, Method: STANDARD PLATE) was “inactive; negative”, the mutagenic call (Test System: AMES SALMONELLA TYPHIMURIUM, Strain/Indicator: TA98, Metabolic Activation: RAT LIVER, CYTOSOL, AROCLOR 1254, Method: STANDARD PLATE) was “active; positive” and the mutagenic call (Test System: AMES SALMONELLA TYPHIMURIUM, Strain/Indicator: TA98, Metabolic Activation: RAT LIVER, MICROSOMES, AROCLOR 1254, Method: STANDARD PLATE) was “active; positive”. The mutagenic call (Test System: AMES SALMONELLA TYPHIMURIUM, Strain/Indicator: TA98, Metabolic Activation: RAT, LIVER, CYTOSOL, AROCLOR 1254, Method: STANDARD PLATE) was “active; positive”, the mutagenic call (Test System: AMES SALMONELLA TYPHIMURIUM, Strain/Indicator: TA98, Metabolic Activation: RAT, LIVER, CYTOSOL, BENZO[A]PYRENE, Method: STANDARD PLATE) was “active; positive” and the mutagenic call (Test System: AMES SALMONELLA TYPHIMURIUM, Strain/Indicator: TA98, Metabolic Activation: RAT, LIVER, CYTOSOL, CLOFIBRATE, Method: STANDARD PLATE) was “active; positive”. For the same molecule, the mutagenic call (Test System: AMES SALMONELLA TYPHIMURIUM, Strain/Indicator: TA98, Metabolic Activation: RAT, LIVER, CYTOSOL, DEXAMETHASONE, Method: STANDARD PLATE) was “active; positive”, the mutagenic call (Test System: AMES SALMONELLA TYPHIMURIUM, Strain/Indicator: TA98, Metabolic Activation: RAT, LIVER, CYTOSOL, ISONIAZID, Method: STANDARD PLATE) was “active; positive” and the mutagenic call (Test System: AMES SALMONELLA TYPHIMURIUM, Strain/Indicator: TA98, Metabolic Activation: RAT, LIVER, CYTOSOL, PHENOBARBITAL, Method: STANDARD PLATE) was “active; positive”. For the same molecule, the mutagenic call (Test System: AMES SALMONELLA TYPHIMURIUM, Strain/Indicator: TA98, Metabolic Activation: RAT, LIVER, MICROSOMES, AROCLOR 1254, Method: STANDARD PLATE) was “active; positive”, the mutagenic call (Test System: AMES SALMONELLA TYPHIMURIUM, Strain/Indicator: TA98, Metabolic Activation: RAT, LIVER, MICROSOMES, BENZO[A]PYRENE, Method: STANDARD PLATE) was “active; positive” and the mutagenic call (Test System: AMES SALMONELLA TYPHIMURIUM, Strain/Indicator: TA98, Metabolic Activation: RAT, LIVER, MICROSOMES, CLOFIBRATE, Method: STANDARD PLATE) was “active; positive”. For the same molecule, the mutagenic call (Test System: AMES SALMONELLA TYPHIMURIUM, Strain/Indicator: TA98, Metabolic Activation: RAT, LIVER, MICROSOMES, DEXAMETHASONE, Method: STANDARD PLATE) was “active; positive”, the mutagenic call (Test System: AMES SALMONELLA TYPHIMURIUM, Strain/Indicator: TA98, Metabolic Activation: RAT, LIVER, MICROSOMES, ISONIAZID, Method: STANDARD PLATE) was “active; positive” and the mutagenic call (Test System: AMES SALMONELLA TYPHIMURIUM, Strain/Indicator: TA98, Metabolic Activation: RAT, LIVER, MICROSOMES, PHENOBARBITAL, Method: STANDARD PLATE) was “active; positive”. For the same molecule, the mutagenic call (Test System: AMES SALMONELLA TYPHIMURIUM, Strain/Indicator: TA98, Metabolic Activation: RAT, LIVER, MICROSOMES, Method: STANDARD PLATE) was “active; positive”, the mutagenic call (Test System: AMES SALMONELLA TYPHIMURIUM, Strain/Indicator: TA98, Metabolic Activation: RAT, LIVER, S-9, AROCLOR 1254, Method: PREINCUBATION) was “active; positive” and the mutagenic call (Test System: AMES SALMONELLA TYPHIMURIUM, Strain/Indicator: TA100, Metabolic Activation: NONE, Method: PREINCUBATION) was “active; positive”. For the same molecule, the mutagenic call (Test System: AMES SALMONELLA TYPHIMURIUM, Strain/Indicator: TA100, Metabolic Activation: NONE, Method: STANDARD PLATE) was “inactive; negative”, the mutagenic call (Test System: AMES SALMONELLA TYPHIMURIUM, Strain/Indicator: TA100, Metabolic Activation: RAT, LIVER, MICROSOMES, 6-AMINOCHRYSENE, Method: STANDARD PLATE) was “inactive; negative” and the mutagenic call (Test System: AMES SALMONELLA TYPHIMURIUM, Strain/Indicator: TA100, Metabolic Activation: RAT, LIVER, MICROSOMES, AROCLOR 1254, Method: STANDARD PLATE) was “active; positive”. For the same molecule, the mutagenic call (Test System: AMES SALMONELLA TYPHIMURIUM, Strain/Indicator: TA100, Metabolic Activation: RAT, LIVER, MICROSOMES, Method: STANDARD PLATE) was “active; positive”, the mutagenic call (Test System: AMES SALMONELLA TYPHIMURIUM, Strain/Indicator: TA100, Metabolic Activation: RAT, LIVER, S-9, AROCLOR 1254, Method: PREINCUBATION) was “active; positive” and the mutagenic call (Test System: AMES SALMONELLA TYPHIMURIUM, Strain/Indicator: TA100, Metabolic Activation: RAT, LIVER, S-9, AROCLOR 1254, Method: STANDARD PLATE) was “active; positive”. The mutagenic call (Test System: AMES SALMONELLA TYPHIMURIUM, Strain/Indicator: TA1535, Metabolic Activation: NONE, Method: STANDARD PLATE) was “inactive; negative”, the mutagenic call (Test System: AMES SALMONELLA TYPHIMURIUM, Strain/Indicator: TA1535, Metabolic Activation: RAT, LIVER, S-9, AROCLOR 1254, Method: STANDARD PLATE) was “inactive; negative” and the mutagenic call (Test System: AMES SALMONELLA TYPHIMURIUM, Strain/Indicator: TA1537, Metabolic Activation: NONE, Method: STANDARD PLATE) was “inactive; negative”. The mutagenic call (Test System: AMES SALMONELLA TYPHIMURIUM, Strain/Indicator: TA1538, Metabolic Activation: NONE, Method: STANDARD PLATE) was “inactive; negative”, the mutagenic call (Test System: CHINESE HAMSTER OVARY, Strain/Indicator: CHO-K1-BH4 (HGPRT)/6-THIOGUANINE, Metabolic Activation: NONE, Method: STANDARD PLATE) was “inactive; negative” and the mutagenic call (Test System: CHINESE HAMSTER OVARY, Strain/Indicator: CHO-K1-BH4 (HGPRT)/6-THIOGUANINE, Metabolic Activation: RAT, LIVER, S-9, AROCLOR 1254, Method: STANDARD PLATE) was “active; positive”. The mutagenic call (Test System: CHINESE HAMSTER OVARY, Strain/Indicator: CHO-UV5 (HGPRT)/6-THIOGUANINE, Metabolic Activation: NONE, Method: STANDARD PLATE) was “inactive; negative”, the mutagenic call (Test System: CHINESE HAMSTER OVARY, Strain/Indicator: CHO-UV5 (HGPRT)/6-THIOGUANINE, Metabolic Activation: RAT, LIVER, S-9, AROCLOR 1254, Method: STANDARD PLATE) was “active; positive” and the mutagenic call (Test System: UDS GUINEA PIG HEPATOCYTES, Strain/Indicator: THY INCORP, Metabolic Activation: NONE, Method: AUTORADIOGRAPHY) was “active; positive”. The mutagenic call (Test System: UDS HUMAN HEPATOCYTES, Strain/Indicator: THY INCORP, Metabolic Activation: NONE, Method: AUTORADIOGRAPHY) was “active; positive”, the mutagenic call (Test System: UDS MONKEY HEPATOCYTES, Strain/Indicator: THY INCORP, Metabolic Activation: NONE, Method: AUTORADIOGRAPHY) was “active; positive” and the mutagenic call (Test System: UDS RAT HEPATOCYTES, Strain/Indicator: THY INCORP, Metabolic Activation: AROCLOR 1254, Method: AUTORADIOGRAPHY) was “active; positive”. For the same molecule, the mutagenic call (Test System: UDS RAT HEPATOCYTES, Strain/Indicator: THY INCORP, Metabolic Activation: NONE, Method: AUTORADIOGRAPHY) was “active; positive”.
`NC(=O)N(Cc1ccccc1)N=O` was tested, and the mutagenic call (Test System: AMES SALMONELLA TYPHIMURIUM, Strain/Indicator: TA100, Metabolic Activation: NONE, Method: LIQUID INCUBATION) was “active; positive” and the mutagenic call (Test System: AMES SALMONELLA TYPHIMURIUM, Strain/Indicator: TA1535, Metabolic Activation: NONE, Method: LIQUID INCUBATION) was “inactive; negative”.
